Values of other authors in paper PMC11667226 (Theranostics, 2025).

Test system: EGFR
Settings: microscopic histopathology as reference; ref Van Keulen et al. [36]; cited from earlier work
From the text: Van Keulen et al. reported a 95% sensitiv ...

Question: With “panitumumab-IRDye800: antibody-based optical imaging agent targeting EGFR” as the substance, how does the “Sensitivity for detection of inadequate margins (< 5mm)” value read?
Answer: 95%

Question: What about the “Specificity for detection of inadequate margins (< 5mm)” value of the same substance?
Answer: 89%
